We go through 22 compounds from US20230042881A1, “MODULATORS OF INTEGRATED STRESS RESPONSE PATHWAY” (Praxis Biotech LLC, priority 2021, published 2023).

SMILES strings stand for the structures. Read-outs that look alike come from different tables or passages of the source.

For assay [1], the system named is ATF4. In words: ATF4 expression inhibition assay (ATF4 5′UTR luciferase reporter, thapsigargin-stressed). Type of assay: cell-based. Particulars: Homo sapiens, HEK-293T, read-out: ATF4 inhibition. Here is the method:
The ATF4 reporter was prepared by fusing the human full length 5′UTR of ATF4 (NCBI Accession No. BC022088.2) upstream of the firefly luciferase coding sequence lacking the initiator methionine. The fused sequence was cloned into pLenti-EF1a-C-Myc-DDK-IRES-Puro cloning vector (Origen #PS100085) using standard methods.
HEK293T cells carrying the ATF4 luciferase reporter were plated on 96-well plates (Nunc) at 10,000 cells per well. Cells were treated two days after seeding with 100 nM thapsigargin (Tg) (Sigma-Aldrich #T9033) in the presence of different concentrations of selected compounds ranging from 0.1 nM to […]. Cells without treatment or cells treated with Tg alone were used as controls. Assay plates containing cells were incubated for 3 hours at 37° C.
Luciferase reactions were performed using Luciferase Assay System (Promega #E1501) as specified by the manufacturer. Luminescence was read with an integration time of 1 s and a gain of 110 using a Cytation-5 multi-mode microplate reader (BioTek).
Background: In a reporter assay the amount or activity of a reporter protein is the signal.

Assay [2] concerns Chinese hamster ovary (CHO) cells. In words: Protein synthesis assay (puromycin incorporation, Western blot). Type of assay: cell-based. The note with it: Cricetulus griseus, read-out: % Protein synthesis relative to untreated (1 μM test compound). The procedure: Chinese hamster ovary (CHO) cells were maintained at 37° C. and 5% CO2 in Dulbecco's Modified Eagle's Media (DMEM) supplemented with 10% fetal bovine serum, 2 mM L-glutamine, 100 U/ml penicillin, and 100 μg/ml streptomycin. After reaching 80% of confluence, cells were detached and seeded on 6 well plates in complete media, allowed to recover overnight and treated for 2 hours with 1 μM of the test compound (to assess protein synthesis levels in unstressed condition), or for 2 hours with 300 nM Tg in the presence of 1 μM of the test compound (to assess the recovery of protein synthesis in a stressed condition). Cells with Tg alone were used as controls.
After the 2 hours treatments, media were replaced by adding 10 μg/ml puromycin (Sigma Aldrich #P8833) in complete media for 30 min. Media were removed and cells were lysed with SDS-PAGE lysis buffer. Lysates were transferred to 1.5 ml tubes and sonicated for 3 min and total protein amount were quantified using BCA Protein Assay Kit (Pierce). Equal amount of protein (30 μg) was loaded on SDS-PAGE gels.
A HRP-conjugated secondary antibody (Rockland) was employed to detect immune-reactive bands using enhanced chemiluminescence (ECL Western Blotting Substrate, Pierce). Quantification of protein bands was done by densitometry using ImageJ software.
The percentage levels were normalized to the media alone condition, which correspond to 100% protein synthesis. […]
In general terms: A western blot detects proteins with antibodies after separation by electrophoresis.

The mark [3] stands for this setting: HEK293T cells carrying ATF4 luciferase reporter, 100 nM thapsigargin (Tg), 3 hours at 37° C.
The mark [4] stands for this setting: unstressed CHO cells (without Tg), 2 hours, 1 μM test compound, media alone = 100%.

Regarding `O=C(COc1ccc(Cl)cc1)N[C@H]1CC[C@H](C(=O)Nc2ccc3cc(Cl)ccc3n2)CC1` [Compound 1, trans-4-(2-(4-chlorophenoxy)acetamido)-N-(6-chloroquinolin-2-yl)cyclohexane-1-carboxamide], the IC50 in assay [1] (3 h) was less than 10 nM. The activity at 1 µM in assay [2] (CHO, 2 h) stood at 91.8%.
On to `O=C(N[C@H]1CC[C@H](C(=O)Nc2ccc3cc(Cl)ccc3n2)CC1)c1ccc2cc(Cl)ccc2n1` [Compound 2, trans-6-chloro-N-(4-((6-chloroquinolin-2-yl)carbamoyl)cyclohexyl)quinoline-2-carboxamide], for which, in assay [1] (setting [3]), the IC50 is less than 10 nM. Besides, the activity at 1 µM in assay [2] (setting [4]) worked out at 163%.
On the same counts, the results for `O=C(COc1ccc(Cl)c(F)c1)N[C@H]1CC[C@H](C(=O)Nc2ccc3cc(Cl)ccc3n2)CC1` [Compound 3, trans-4-(2-(4-chloro-3-fluorophenoxy)acetamido)-N-(6-chloroquinolin-2-yl)cyclohexane-1-carboxamide] are less than 10 nM and 188%.
Turning to `O=C(N[C@H]1CC[C@H](C(=O)Nc2ccc3cc(Cl)ccc3n2)CC1)c1cc2cc(Cl)ccc2o1` [Compound 4, trans-5-chloro-N-(4-((6-chloroquinolin-2-yl)carbamoyl)cyclohexyl)benzofuran-2-carboxamide], the IC50 in assay [1] (setting [3]) was less than 10 nM. For the same compound, the activity at 1 µM in assay [2] (setting [4]) amounted to 204%.
For `O=C(N[C@H]1CC[C@H](C(=O)Nc2ccc3cc(Cl)ccc3n2)CC1)C1CNc2cc(Cl)ccc2O1` (stereo partly drawn) [Compound 5, trans-6-chloro-N-(4-((6-chloroquinolin-2-yl)carbamoyl)cyclohexyl)-3,4-dihydro-2H-benzo[b][1,4]oxazine-2-carboxamide] the same measures were less than 10 nM and 195%.
As for `O=C(N[C@H]1CC[C@H](C(=O)Nc2ccc3cc(Cl)ccc3n2)CC1)[C@H]1CNc2cc(Cl)ccc2O1` [Compound 6, trans-(R)-6-chloro-N-(4-((6-chloroquinolin-2-yl)carbamoyl)cyclohexyl)-3,4-dihydro-2H-benzo[b][1,4]oxazine-2-carboxamide], the IC50 in assay [1] (setting [3]) was less than 10 nM. Further, in assay [2] (setting [4]), the activity at 1 µM was found to be 100%.
On to `O=C(N[C@H]1CC[C@H](C(=O)Nc2ccc3cc(Cl)ccc3n2)CC1)[C@@H]1CNc2cc(Cl)ccc2O1` [Compound 7, trans-(S)-6-chloro-N-(4-((6-chloroquinolin-2-yl)carbamoyl)cyclohexyl)-3,4-dihydro-2H-benzo[b][1,4]oxazine-2-carboxamide], for which, in assay [1] (setting [3]), the IC50 is less than 10 nM. The activity at 1 µM in assay [2] (setting [4]) was determined as 115%.
`O=C(Nc1ccc2cc(Cl)ccc2n1)C1CCN(C[C@@H](O)COc2ccc(Cl)c(F)c2)CC1` [Compound 8, (R)-1-(3-(4-chloro-3-fluorophenoxy)-2-hydroxypropyl)-N-(6-chloroquinolin-2-yl)piperidine-4-carboxamide]: the IC50 in assay [1] (setting [3]) lay within 10 to 100 nM. Besides, the activity at 1 µM in assay [2] (setting [4]) turned out to be 156%.
For `O=C(Nc1ccc2cc(Cl)ccc2n1)C1CCN(C[C@H](O)COc2ccc(Cl)c(F)c2)CC1` [Compound 9, (S)-1-(3-(4-chloro-3-fluorophenoxy)-2-hydroxypropyl)-N-(6-chloroquinolin-2-yl)piperidine-4-carboxamide] the same measures were 100 to 1000 nM and 156%.
On to `O=C(C[C@H]1CC[C@H](NC(=O)COc2ccc(Cl)c(F)c2)CC1)Nc1ccc2cc(Cl)ccc2n1` [Compound 21, trans-2-(4-chloro-3-fluorophenoxy)-N-(4-(2-((6-chloroquinolin-2-yl)amino)-2-oxoethyl)cyclohexyl)acetamide], for which, in assay [1] (3 h), the IC50 lay within 100 to 1000 nM.
Consider `O=C(NC[C@H]1CC[C@H](C(=O)Nc2ccc3cc(Cl)ccc3n2)CC1)c1cnc(C(F)F)cn1` [Compound 23, trans-N-((4-((6-chloroquinolin-2-yl)carbamoyl)cyclohexyl)methyl)-5-(difluoromethyl)pyrazine-2-carboxamide], for which the IC50 in assay [1] (setting [3]) is more than 1000 nM.
As to `O=C(NC[C@H]1CC[C@H](C(=O)Nc2ccc3cc(Cl)ccc3n2)CC1)c1ccc(C(F)(F)F)nc1` [Compound 37, trans-N-((4-((6-chloroquinolin-2-yl)carbamoyl)cyclohexyl)methyl)-6-(trifluoromethyl)nicotinamide], in assay [1] (setting [3]), the IC50 lay within 100 to 1000 nM.
Take `O=C(NC[C@H]1CC[C@H](C(=O)Nc2ccc3cc(Cl)ccc3n2)CC1)c1ccc(C(F)(F)F)cn1` [Compound 38, trans-N-((4-((6-chloroquinolin-2-yl)carbamoyl)cyclohexyl)methyl)-5-(trifluoromethyl)picolinamide]: the IC50 in assay [1] (setting [3]) lay in the range of 100 to 1000 nM.
Regarding `O=C(NC[C@H]1CC[C@H](C(=O)NCc2cc3cc(Cl)ccc3o2)CC1)c1ccc(C(F)(F)F)nc1` [Compound 51, N-((trans-4-(((5-chlorobenzofuran-2-yl)methyl)carbamoyl)cyclohexyl)methyl)-6-(trifluoromethyl)nicotinamide], the IC50 in assay [1] (setting [3]) was 100 to 1000 nM.
With `O=C(NC[C@H]1CC[C@H](C(=O)NCc2cc3cc(Cl)ccc3o2)CC1)c1ccc(C(F)(F)F)cn1` [Compound 52, N-((trans-4-(((5-chlorobenzofuran-2-yl)methyl)carbamoyl)cyclohexyl)methyl)-5-(trifluoromethyl)picolinamide], the IC50 in assay [1] (setting [3]) was in the range of 100 to 1000 nM.
Still for that read-out and setting: under `O=C(CO[C@H]1C[C@@H](OC(F)(F)F)C1)NN1CCC(C(=O)NCc2cc3cc(Cl)ccc3o2)CC1` [Compound 56, N-((5-chlorobenzofuran-2-yl)methyl)-1-(2-(cis-3-(trifluoromethoxy)cyclobutoxy)acetamido)piperidine-4-carboxamide] stands 100 to 1000 nM; under `O=C(CO[C@H]1C[C@@H](OC(F)(F)F)C1)N[C@H]1CC[C@H](C(=O)NCc2cc3cc(Cl)ccc3o2)CC1` [Compound 59, trans-N-((5-chlorobenzofuran-2-yl)methyl)-4-(2-(cis-3-(trifluoromethoxy)cyclobutoxy)acetamido)cyclohexane-1-carboxamide], 100 to 1000 nM.
Regarding `O=C(CO[C@H]1C[C@@H](OC(F)(F)F)C1)N[C@H]1CC[C@H](C(=O)NCC2CNc3cc(Cl)ccc3O2)CC1` (stereo partly drawn) [Compound 79, trans-N-((6-chloro-3,4-dihydro-2H-benzo[b][1,4]oxazin-2-yl)methyl)-4-(2-(cis-3-(trifluoromethoxy)cyclobutoxy)acetamido)cyclohexane-1-carboxamide], the IC50 in assay [1] (setting [3]) was in the range of 100 to 1000 nM.
With `O=C(CO[C@H]1C[C@@H](OC(F)(F)F)C1)NN1CCC(C(=O)NCC2CNc3cc(Cl)ccc3O2)CC1` (stereo partly drawn) [Compound 80, N-((6-chloro-3,4-dihydro-2H-benzo[b][1,4]oxazin-2-yl)methyl)-1-(2-(cis-3-(trifluoromethoxy)cyclobutoxy)acetamido)piperidine-4-carboxamide], in assay [1] (setting [3]), the IC50 lay in the range of 100 to 1000 nM.
Consider `O=C(CO[C@H]1C[C@@H](OC(F)(F)F)C1)N[C@H]1CC[C@H](C(=O)Nc2nc3cc(Cl)ccc3o2)CC1` [Compound 101, trans-N-(5-chlorobenzo[d]oxazol-2-yl)-4-(2-(cis-3-(trifluoromethoxy)cyclobutoxy)acetamido)cyclohexanecarboxamide], for which, in assay [1] (3 h), the IC50 was 100 to 1000 nM.
Turning to `O=C(CO[C@H]1C[C@@H](OC(F)(F)F)C1)NN1CCC(C(=O)Nc2nc3cc(Cl)ccc3s2)CC1` [Compound 121, N-(5-chlorobenzo[d]thiazol-2-yl)-1-(2-(cis-3-(trifluoromethoxy)cyclobutoxy)acetamido)piperidine-4-carboxamide], in assay [1] (setting [3]), the IC50 fell in the range of 100 to 1000 nM.
For the compound `O=C(Nc1nc2cc(Cl)ccc2s1)[C@H]1CC[C@H](C(=O)N[C@H]2C[C@@H](OC(F)(F)F)C2)CC1` [Compound 123], the IC50 in assay [1] (setting [3]) is 100 to 1000 nM.
